Measured values from patent publication US12110258B2, “Coated fertilizer containing urease inhibitor” (SABIC Agri-Nutrients Company, priority 2018, dated 2024).

Experiment: Inhibitor Stability Test (HPLC, non-degraded NBTPT remaining after storage)
Details: 2 weeks, RT (23 to 26° C.)
Experimental: Inhibitor Stability Test: The stability test is used to indicate changes in stability of the urease inhibitor in different coated fertilizers or coating compositions under multiple conditions for different amounts of time. HPLC analysis was used to determine the amount of non-degraded inhibitor remaining at the end of the testing periods. Briefly, for the HPLC analysis procedure, approximately 4 grams of a sample and 20 ml of diluent was added into a 50 ml polypropylene tube. The sample was sonicated for 30 minutes with intermediate shaking and then vortexed for 1 hour using a vortex shaker. After vortexing, the sample was filtered using a 0.45μ syringe filter into a HPLC vial and injected into the HPLC.
Chromatographic Conditions:
• Column: Phenomenex, Luna 5u Pnenyl hexyl 250*4.6, 5μ • Column oven temperature: 350° C. • Injection Vol.: 5 μL • Flow rate: 1.00 mL/min • Mobile Phase: Reservoir A—Milli Q Water; Reservoir C—Acetonitrile; Isocratic—Milli Q water/Acetonitrile (80:20% v/v) • Run Time: 15 minutes • Wavelength: 207 nm
Calculation: Calibration standards were injected in duplicate and the calibration curve for NBTPT was constructed by plotting the concentration (mg/mL) in X-axis and Instrument response (area) in the Y-axis. The unknown concentrations of NBTPT in the samples were calculated using the formula y=mx+c with the appropriate dilution factor applied. […]

For `CCCCNP(N)(N)=S` [compound 4, N-(n-butyl) thiophosphoric triamide], the “% NBTPT Degradation” value was 0%.
